≈ marks a conversion by molar mass, not a printed value. Like-named read-outs stand apart in the source and are kept apart here.
Columns and labels:
[1] = tested on: Acinetobacter-baumannii-calcoaceticus complex; test: Reference agar dilution MIC, SENTRY US isolates; assay type: cell-based
Description: (§1) FOS was tested against over 1,400 GN and 800 GP clinical isolates collected in US medical centers as part of the SENTRY Antimicrobial Surveillance Program (96% of isolates from 2015) and a selection of 29 GN and 20 GP anaerobes. Isolates were susceptibility (S) tested against FOS and comparators by reference agar dilution (25 μg/mL glucose-6-phosphate supplementation) using existing FDA breakpoints of the oral formulation for comparative assessments.

[2] = tested on: C. freundii complex; test: Reference agar dilution MIC, SENTRY US isolates; assay type: cell-based; conditions: Citrobacter freundii; randomly selected
Description: as §1

[3] = tested on: Citrobacter koseri; test: Reference agar dilution MIC, SENTRY US isolates; assay type: cell-based; conditions: randomly selected
Description: as §1

[4] = tested on: E. cloacae complex; test: Reference agar dilution MIC, SENTRY US isolates; assay type: cell-based; conditions: Enterobacter cloacae; randomly selected
Description: as §1

[5] = tested on: E. faecalis; test: Reference agar dilution MIC, SENTRY US isolates; assay type: cell-based; conditions: FDA oral breakpoints
Description: as §1

[6] = tested on: E. faecium; test: Reference agar dilution MIC, SENTRY US isolates; assay type: cell-based; conditions: FDA oral breakpoints
Description: as §1

[7] = tested on: Enterobacter aerogenes; test: Reference agar dilution MIC, SENTRY US isolates; assay type: cell-based; conditions: Klebsiella aerogenes; randomly selected
Description: as §1

[8] = tested on: Enterobacteriaceae; test: Reference agar dilution MIC, SENTRY US isolates; assay type: cell-based; conditions: selected Enterobacteriaceae
Description: as §1

[9] = tested on: Escherichia coli; test: Reference agar dilution MIC, SENTRY US isolates; assay type: cell-based; conditions: randomly selected
Description: as §1

[10] = tested on: Klebsiella pneumoniae; test: Reference agar dilution MIC, SENTRY US isolates; assay type: cell-based
Description: as §1

[11] = tested on: Proteus mirabilis; test: Reference agar dilution MIC, SENTRY US isolates; assay type: cell-based; conditions: randomly selected
Description: as §1

[12] = tested on: Pseudomonas aeruginosa; test: Reference agar dilution MIC, SENTRY US isolates; assay type: cell-based
Description: as §1

[13] = tested on: S. agalactiae; test: Reference agar dilution MIC, SENTRY US isolates; assay type: cell-based; conditions: Streptococcus agalactiae
Description: as §1

[14] = tested on: S. pyogenes; test: Reference agar dilution MIC, SENTRY US isolates; assay type: cell-based; conditions: Streptococcus pyogenes
Description: as §1

[15] = tested on: S. saprophyticus; test: Reference agar dilution MIC, SENTRY US isolates; assay type: cell-based; conditions: Staphylococcus saprophyticus
Description: as §1

[16] = tested on: Serratia marcescens; test: Reference agar dilution MIC, SENTRY US isolates; assay type: cell-based; conditions: randomly selected
Description: as §1

[17] = tested on: Staphylococcus aureus; test: Reference agar dilution MIC, SENTRY US isolates; assay type: cell-based
Description: as §1

[18] = tested on: coagulase-negative staphylococci (CoNS) excluding S. saprophyticus; test: Reference agar dilution MIC, SENTRY US isolates; assay type: cell-based
Description: as §1

[19] = tested on: Clostridium spp., Finegoldia magna, and Peptostreptococcus spp.; test: Reference agar dilution MIC, anaerobes; assay type: cell-based; conditions: small collection
Description: as §1

[20] = tested on: Prevotella and Porphyromonas spp.; test: Reference agar dilution MIC, anaerobes; assay type: cell-based
Description: as §1

[21] = tested on: Propionibacterium spp.; test: Reference agar dilution MIC, anaerobes; assay type: cell-based
Description: as §1

[22] = tested on: Veillonella spp.; test: Reference agar dilution MIC, anaerobes; assay type: cell-based
Description: as §1

[23] = tested on: EC with an ESBL phenotype; test: Reference agar dilution MIC, resistant SENTRY isolates; assay type: cell-based; conditions: Escherichia coli
Description: (§2) Utilizing existing interpretative criteria for the marketed oral agent (dosed at 3 g) for analysis purposes, FOS susceptibility (S) was determined for recent resistant GN and GP clinical isolates including vancomycin-resistant Enterococcus faecium (VREM) and E. faecalis (VREF); methicillin-resistant Staphylococcus aureus (MRSA) and MR coagulase negative staphylococci (MR-CoNS), Escherichia coli (EC) and Klebsiella pneumoniae (KPN) containing extended spectrum beta-lactamases (ESBL) or were carbapenem resistant (CR); and), Pseudomonas aeruginosa (PSA) non-susceptible to ceftazidime (CAZ-NS) or to meropenem (MER-NS). […] Isolates were collected from hospitalized patients in the US as a part of the SENTRY surveillance program, 2013-2015.

[24] = tested on: MR coagulase negative staphylococci (MR-CoNS); test: as above; assay type: cell-based
Description: as §2

[25] = tested on: methicillin-resistant Staphylococcus aureus (MRSA); test: as above; assay type: cell-based
Description: as §2

[26] = tested on: vancomycin-resistant Enterococcus faecium (VREM); test: as above; assay type: cell-based
Description: as §2

[27] = tested on: CR-KPN; test: as above; assay type: cell-based, Klebsiella pneumoniae
Description: (§3) Utilizing existing interpretative criteria for the marketed oral agent (dosed at 3 g) for analysis purposes, FOS susceptibility (S) was determined for recent resistant GN and GP clinical isolates including vancomycin-resistant Enterococcus faecium (VREM) and E. faecalis (VREF); methicillin-resistant Staphylococcus aureus (MRSA) and MR coagulase negative staphylococci (MR-CoNS), Escherichia coli (EC) and Klebsiella pneumoniae (KPN) containing extended spectrum beta-lactamases (ESBL) or were carbapenem resistant (CR); and), Pseudomonas aeruginosa (PSA) non-susceptible to ceftazidime (CAZ-NS) or to meropenem (MER-NS).

[28] = tested on: KPN with ESBL phenotype; test: as above; assay type: cell-based, Klebsiella pneumoniae
Description: as §3

[29] = Klebsiella pneumoniae, 17 CR-KPN

SMILES: C[C@@H]1O[C@@H]1P(=O)(O)O [FOS, fosfomycin]
- MIC50 [1]: 128 µg/mL (≈ 927 µM)
- MIC90 [1]: 256 µg/mL (≈ 1850 µM)
- MIC50 [2]: 0.5 µg/mL (≈ 3.62 µM)
- MIC90 [2]: 1 µg/mL (≈ 7.24 µM)
- MIC50 [3]: 1 µg/mL (≈ 7.24 µM)
- MIC90 [3]: 1 µg/mL (≈ 7.24 µM)
- MIC50 [4]: 8 µg/mL (≈ 57.9 µM)
- MIC90 [4]: 64 µg/mL (≈ 464 µM)
- % S [5]: 99.0%
- % intermediate [5]: 1.0%
- % S [6]: 79.8%
- % intermediate [6]: 19.2%
- MIC50 [7]: 8 µg/mL (≈ 57.9 µM)
- MIC90 [7]: 16 µg/mL (≈ 116 µM)
- MIC50 [8]: 4 µg/mL (≈ 29 µM)
- MIC50 ([9]; Escherichia coli): 0.5 µg/mL (≈ 3.62 µM)
- MIC90 ([9]; Escherichia coli): 1 µg/mL (≈ 7.24 µM)
- % S to FOS ([9]; FDA oral breakpoints): 100.0%
- % of isolates ≤64 μg/mL [10]: 97.0%
- MIC50 ([10]; Klebsiella pneumoniae): 4 µg/mL (≈ 29 µM)
- MIC90 ([10]; Klebsiella pneumoniae): 16 µg/mL (≈ 116 µM)
- MIC50 [11]: 1 µg/mL (≈ 7.24 µM)
- MIC90 [11]: 8 µg/mL (≈ 57.9 µM)
- MIC50 [12]: 64 µg/mL (≈ 464 µM)
- MIC90 [12]: 128 µg/mL (≈ 927 µM)
- MIC50 [13]: 8 µg/mL (≈ 57.9 µM)
- MIC90 [13]: 64 µg/mL (≈ 464 µM)
- MIC50 [14]: 32 µg/mL (≈ 232 µM)
- MIC90 [14]: 64 µg/mL (≈ 464 µM)
- MIC50 [15]: 128 µg/mL (≈ 927 µM)
- MIC90 [15]: > 256 µg/mL
- MIC50 [16]: 8 µg/mL (≈ 57.9 µM)
- MIC90 [16]: 16 µg/mL (≈ 116 µM)
- MIC50 [17]: 4 µg/mL (≈ 29 µM)
- MIC90 [17]: 8 µg/mL (≈ 57.9 µM)
- MIC50 [18]: 8 µg/mL (≈ 57.9 µM)
- MIC90 ([18]; Staphylococcus saprophyticus): 64 µg/mL (≈ 464 µM)
- MIC range [19]: 0.5 to 32 µg/mL
- MIC [20]: > 256 µg/mL
- MIC [21]: > 256 µg/mL
- MIC range [22]: ≤0.03 to 0.06 µg/mL
- MIC [23]: > 256 µg/mL
- MIC50 ([23]; 49 EC): 0.5 µg/mL (≈ 3.62 µM)
- MIC90 ([23]; 49 EC): 4 µg/mL (≈ 29 µM)
- MIC ([23]; remaining isolates, read-out: MIC values): ≤ 32 µg/mL
- MIC ([24]; Staphylococcus capitis): 128 µg/mL (≈ 927 µM)
- MIC ([24]; Staphylococcus hominis): > 256 µg/mL
- No. of isolates with FOS MIC≤64 μg/mL ([24]; of 153 MR-CoNS): 72
- MIC50 ([25]; 101 MRSA): 4 µg/mL (≈ 29 µM)
- MIC90 ([25]; 101 MRSA): 8 µg/mL (≈ 57.9 µM)
- MIC ([25]; all 101 MRSA): ≤ 64 µg/mL
- MIC90 ([26]; Enterococcus faecium): 128 µg/mL (≈ 927 µM)
- MIC50 ([26]; Enterococcus faecium, 81 VREM): 64 µg/mL (≈ 464 µM)
- No. of isolates with an MIC 64 μg/mL ([26]; of 81 VREM): 63
- MIC50 [27, 29]: 8 µg/mL (≈ 57.9 µM)
- MIC90 [27, 29]: 64 µg/mL (≈ 464 µM)
- No. of isolates with FOS MIC≤64 μg/mL ([27]; of 17 CR-KPN): 16
- MIC ([27]; one isolate): > 256 µg/mL
- MIC ([28]; Klebsiella pneumoniae): > 256 µg/mL
- MIC50 ([28]; Klebsiella pneumoniae, 50 KPN): 4 µg/mL (≈ 29 µM)
- MIC90 ([28]; Klebsiella pneumoniae, 50 KPN): 16 µg/mL (≈ 116 µM)
- No. of isolates with FOS MIC≤64 μg/mL ([28]; of 50 KPN): 49
